The conditions of series [1]: 200 g lean beef, 69 mg co-crystal or same equivalent, stored at 2-4° C. for 8 days.
Experimental: A. the lean beef was cut into pieces with a size of about 2×2 cm, 200 grams for each.
All samples were placed in a metal dish, numbered and stored at 2-4° C. for 8 days.
Series [2] can be described thus: Acceleration test (40° C./75% relative humidity), synthetic tocopherol vs co-crystal, total tocopherol content. It is filed as physicochemical. The procedure: The content was determined by HPLC, the content was calculated by the external standard method, and the content is calculated based on the total tocopherol content. Both the initial tocopherol contents in the synthetic tocopherol itself and in the co-crystals were set at 100%.

Series [3] can be described thus: Accelerated test stability (40° C./75% relative humidity), D-α-tocopherol vs co-crystal. It is filed as physicochemical. The procedure:
(§1) The content was determined by HPLC, and the content was calculated by the external standard method.

Series [4] can be described thus: Strong light irradiation test (5500 Lux), content by HPLC and appearance. It is filed as physicochemical. The note with it: 25° C. The procedure: as §1
A short description of series [5]: High temperature test (60° C.), content by HPLC and appearance. It counts as physicochemical. How it is done:
as §1

A short description of series [6]: Long-term test stability (25° C./60% relative humidity). It is filed as physicochemical. As to conditions: Month 0, initial content set at 100%. How it is done:
as §1

On to “co-crystal of D-α-tocopherol and L-proline”, for which, in series [1], the “flavor (rancidity) of beef” value was “except for the sample added with the co-crystal of D-α-tocopherol and L-proline, both of the other two samples have rancidity”; the “meat color of beef” value is “can delay the darkening and greening of beef”.
In the case of `Cc1c(C)c2c(c(C)c1O)CCC(C)(CCCC(C)CCCC(C)CCCC(C)C)O2` (racemic) [synthetic tocopherol, DL-α-tocopherol], the content is recorded as 100.0% in series [2] (Month 0, initial set at 100%) and 94.1% in series [2] (Month 1).
For the compound `Cc1c(C)c2c(c(C)c1O)CC[C@@](C)(CCC[C@H](C)CCC[C@H](C)CCCC(C)C)O2` [D-α-tocopherol], the content in series [3] (Month 0, initial content set at 100%) is given as 100%; in series [3] (Month 1) it was 98.0%; in series [3] (Month 2), 99.1%; in series [4] (near UV 90 μW/cm^2, Day 0, initial content set at 100%), 100%; in series [4] (near UV 90 μW/cm^2, Day 5), 97.8%; in series [4] (near UV 90 μW/cm^2, Day 10) it was 91.8%. Also, the content was found to be 88.5% in series [4] (near UV 90 μW/cm^2, Day 20); 100% in series [5] (Day 0, HPLC, initial content set at 100%); 96.7% in series [5] (Day 5, % of initial content); 89.4% in series [5] (Day 10, % of initial content); 78.7% in series [5] (Day 20, % of initial content); 77.3% in series [5] (Day 30, % of initial content). This compound gave a content in series [6] of 100.0%.

(Values after patent publication US20200331855A1, “CO-CRYSTAL OF TOCOPHEROL AND PROLINE AND PREPARATION METHOD THEREOF” (priority 2017, published 2020).)
